Data as given in US20240415919A1, “COMPOSITIONS AND METHODS FOR TREATMENT OF AUTOIMMUNE DISORDERS AND CANCER” (Dana-Farber Cancer Institute, Inc., priority 2021, published 2024).
Values joined by “and” are separate entries in the source; they are usually repeats but may differ in a detail not shown here. Identical values can stand only once. “Also recorded” adds a separate entry of the source.

Columns and labels:
FL9 T cells [1] = test: Activation (CD69) of FL9 TCR+ hybridoma / FL9 T cells by peptide-loaded EL4 (Qa-1+) cells; type: cell-based, mouse; conditions: 0, 1, 3 and 10 μg/ml, compared with cognate FL9 self-peptide
Procedure: FIG. 4 provides a graphical representation showing a Qa-1-peptide yeast library, which identified peptides with superagonistic activity. FL9 T cells were stimulated with EL4 (Qa-1+) cells in the presence of surrogate peptides selected from peptide-Qa-1 yeast library for 3 days. Activation status of FL9 T cells was measured by CD69 expression.
FIG. 58A-C and FIG. 58D-E provides representation showing identification of superagonists for FL9 T cells. FIG. 58(A) provides a schematic showing a library composed of 96 FL9 peptide variants (crude peptides) was generated by aa mutagenesis at the Qa-1 anchoring positions (p2, p3, p6, p^7 and p9). FL9 TCR^+ hybridomas were incubated with EL4 cells (Qa-1^+) loaded with each FL9 peptide variant for 12 hrs and CD69 expression and TCR downregulation were measured as an indication of TCR stimulation. […] Expression of Vα3.2 and Vβ5 on EL4 cells (trogocytosis) was measured (right). […] Dose-dependent activation of FL9 T cells was measured by culturing FL9.2 T cells with EL4 (Qa-1^+) at various concentrations of indicated peptides (0, 1, 3 and 10 μg/ml). […] Six days later, proliferation of FL9.2 T cells (CD45.2^+Vα3.2^+VD5^+) was measured by CFSE dilution (left). CD45.1^+ B6 mice were immunized with Ova323-339 peptide in CFA on day 6 and the frequency of I-A^b/Ova323-339 Tet^+ CD4 cells in activated (CD44^+) CD4 cells was analyzed on day 14. […]

[2] = system: I-Ab/Ova323-339 Tet+ CD4 cells; test: FL9-68 vaccination followed by Ova323-339/CFA immunization; type: in vivo, mouse
Procedure: FIG. 58(E) CD45.1^+ B6 mice that were vaccinated with FL9-68 in CFA or CFA alone on day 0 were immunized with Ova323-339 peptide in CFA on day 6. The frequency of I-Ab/Ova323-339 Tet^+ CD4 cells in activated (CD44^+) CD4 cells in the spleen and dLN was analyzed on day 14.

[3] = system: fully-mismatched kidney transplants; test: BALB/c to B6 kidney transplantation with FL9-SA vaccination; type: in vivo, mouse
Procedure: The left kidney of BALB/c mice (H-2^d) was recovered using a full-length ureter and transplanted into a B6 host (H-2^b). The ureter of the remaining native kidney was then ligated on post-operative day 2-4 to inhibit native kidney function. Surgical success was determined if mice survived seven days post-surgery (POD). Transplanted B6 hosts were treated intraperitoneally with FL9-SA (50 μg), or PBS emulsified in Adjuvant (Addavax™), once a week starting POD2. On day 20 following kidney transplantation (n=5-7/group), allograft draining lymphoid tissues were assessed for FL9-specific Treg (Qa-1-FL9 Tet^+), Tfh, GC B and plasma cells, DSA levels in sera, capillary C4d deposition and gross anatomy of kidney allografts. Survival of kidney allografts was measured by survival of recipients with absence of native kidney function.

MCMV = test: Murine MCMV infection model with FL9-68 vaccination; type: in vivo, mouse
Procedure: FIG. 10A-C provides a graphical representation showing FL9-68-dependent mobilization of CD8 Treg dampens autoantibody responses during MCMV infection. WT B6 mice were infected with MCMV (2×10^5 pfu) and vaccinated with (100 ug/dose) FL9-68 in IFA or IFA alone at day 0, 8 and 12. Mice were bled at day 3, 10 and 18 and levels of anti-dsDNA Ab (panel A), viral titer (panel B) and frequency of activated CD8 Treg (panel C, Ly49+NKG2D+CD8) are shown.

FL9 T cells [4] = test: In vitro FL9 T cell proliferation and killing of activated CD4 cells; type: cell-based

## FYAEATLML [FL9-68, FL9 peptide variant containing a P→L substitution at pos 7; superagonist for CD8 Treg]
FL9 T cells [1]
  stimulatory activity for FL9 T cells / FL9.2 and FL9.8 TCRs (CD69 expression): superior ability to activate FL9 T cells; also recorded: superior ability to stimulate FL9 T cells; also recorded: markedly enhanced dose-dependent stimulatory activity; also recorded: significantly enhanced stimulating activity in vitro and in vivo; also recorded: significantly enhanced stimulatory activity in vitro and in vivo
[2]; FL9-68 in CFA day 0, Ova323-339/CFA day 6, analysis day 14
  inhibition of the response of I-Ab/Ova323-339 tet+ CD4 cells: 50% and > 50%
[2]; same experiment as E6
  numbers or percent of non-specifically activated CD4 cells: did not reduce the numbers or percent of non-specifically activated CD4 cells
[3]; CD4+ T cells from B6 hosts
  CD44+ CD4 T-cell memory responses to irradiated donor lymphocytes: reduced CD44^+ CD4 T-cell memory responses
[3]; allograft-draining lymph nodes, day 20 after kidney transplantation
  increase in FL9-specific Treg measured by FL9-Qa-1 tetramers: > 7 fold
[3]; controls 20.5 days
  mean survival time of kidney allograft: 40 days
[3]; kidney graft recipients
  donor-specific antibody (DSA): markedly reduced donor specific Ab generation; also recorded: significant decrease in DSA
[3]; kidney graft recipients, vs IFA alone
  GC response: frequency of Tfh, activated GC B and plasma cells: markedly reduced the GC response
[3]; mouse, in vivo
  C4d deposition in peritubular capillaries of kidney allografts: reduced C4d deposition
MCMV; mouse, in vivo
  NKG2D+Ly49+ CD8 T cells (activated CD8 Treg): increase of NKG2D+Ly49^+ CD8 T cells
MCMV; vaccination at days 0, 8 and 12 after viral infection
  production of anti-dsDNA Ab: significantly reduced production of anti-dsDNA Ab
FL9 T cells [4]
  proliferation of FL9 T cells and killing of activated CD4 cells: promoted proliferation of FL9 T cells leading to enhanced killing of activated CD4 cells
